Test system: HCV 1b_Huh-Luc/Neo-ET cell line persistently expressing a bicistronic genotype 1b replicon in Huh 7 cells
Assay: HCV replicon assay (luciferase readout, 72 h)
Assay type: cell-based, HCV genotype 1b
Details: Hepatitis C virus, Huh-7, 72 h, read-out: Inhibition of HCV genotype 1b
Summary of the method: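 Huh 7 cells carrying a bicistronic genotype 1b luciferase/neo replicon received compound in triplicate the day after plating. After 72 h, replicon levels were read as Bright-Glo luciferase activity, expressed as % of control; EC50 was fitted with a four-parameter logistic and determined several times.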

`COC(=O)N[C@@H](C(=O)N1CCC[C@H]1c1ncc(C#Cc2ccc(-c3cnc([C@@H]4CCCN4C(=O)[C@@H](c4ccccc4)N(C)C)[nH]3)cc2)[nH]1)c1ccccc1` [Compound 123] and `CCN(CC)[C@@H](C(=O)N1CCC[C@H]1c1ncc(-c2ccc(C#Cc3ccc(-c4cnc([C@@H]5CCCN5C(=O)[C@H](NC(=O)OC)c5ccccc5)[nH]4)cc3)cc2)[nH]1)c1ccccc1` [Compound 175] cannot be ordered by EC50: less than 1 nM for the first, less than 1 nM for the second.

`COC(=O)N[C@H](C(=O)N[C@@H](C)c1ncc(-c2ccc(C#Cc3ccc(-c4cnc([C@H](C)NC(=O)[C@@H](NC(=O)OC)[C@@H](C)O)[nH]4)cc3)cc2)[nH]1)[C@@H](C)O` [Compound 969] and `COC(=O)N[C@H](C(=O)N1CCC[C@H]1c1ncc(-c2ccc(C#Cc3ccc(-c4cnc([C@H](C)NC(=O)[C@@H](c5ccccc5)N(C)C)[nH]4)cc3)cc2)[nH]1)C(C)C` [Compound 983] cannot be ordered by EC50: less than 1 nM for the first, less than 1 nM for the second.

First: COC(=O)N[C@@H](C(=O)N1CCC[C@H]1c1ncc(-c2ccc(C#Cc3ccc(-c4cnc([C@@H]5CCCN5C(=O)Nc5ccccc5)[nH]4)cc3)cc2)[nH]1)c1ccccc1 [Compound 196]
Second: CC[C@@H](C(=O)N1CCC[C@H]1c1ncc(-c2ccc(C#Cc3ccc(-c4cnc([C@@H]5CCCN5C(=O)[C@H](NC(=O)OC)c5ccccc5)[nH]4)cc3)cc2)[nH]1)c1ccccc1 [Compound 258]
The EC50 of the first is higher: 1 to 9.9 nM for the first, less than 1 nM for the second. The second is the more potent here.

`O=C(N[C@@H](C(=O)N1CCC[C@H]1c1ncc(-c2ccc(C#Cc3ccc(-c4cnc([C@@H]5CCCN5C(=O)[C@H](NC(=O)OC5CCOCC5)c5ccccc5)[nH]4)c(F)c3)cc2)[nH]1)c1ccccc1)OC1CCOCC1` [Compound 1014] and `CNC(=O)N[C@@H](C(=O)N1CCC[C@H]1c1ncc(-c2ccc(C#Cc3ccc(-c4cnc([C@@H]5CCCN5C(=O)[C@H](NC(=O)C5CC5)c5ccccc5)[nH]4)cc3)cc2)[nH]1)c1ccccc1` [Compound 997] cannot be ordered by EC50: less than 1 nM for the first, less than 1 nM for the second.

`O=C(N[C@@H](C(=O)N1CCC[C@H]1C(=O)NCc1ccc(C#Cc2cnc([C@@H]3CCCN3C(=O)[C@H](NC(=O)C3CC3)c3ccccc3)[nH]2)cc1)c1ccccc1)C1CC1` [Compound 121] and `O=C(N[C@@H](C(=O)N1CCC[C@H]1c1ncc(C#Cc2ccc(C#Cc3cnc([C@@H]4CCCN4C(=O)[C@H](NC(=O)C4CC4)c4ccccc4)[nH]3)cc2)[nH]1)c1ccccc1)C1CC1` [Compound 303] cannot be ordered by EC50: less than 1 nM for the first, less than 1 nM for the second.

`COC(=O)N[C@@H](C(=O)N1CCC[C@H]1c1ncc(C#Cc2ccc3nc([C@@H]4CCCN4C(=O)[C@H](NC(=O)OC)c4ccccc4)[nH]c3c2)[nH]1)c1ccccc1` [Compound 700] and `COC(=O)N[C@@H](C(=O)N1CCC[C@H]1c1ncc(C#Cc2ccc(-c3ccc(-c4cnc([C@@H]5CCCN5C(=O)[C@H](NC(=O)OC(C)(C)C)c5ccccc5)[nH]4)cc3)cc2)[nH]1)c1ccccc1` [Compound 753] cannot be ordered by EC50: less than 1 nM for the first, less than 1 nM for the second.

`COC(=O)N[C@H](C(=O)N1CCC[C@H]1c1ncc(-c2ccc(C#Cc3ccc4c(c3)CCCc3nc([C@@H]5CCCN5C(=O)[C@@H](NC(=O)OC)C(C)C)[nH]c3-4)cc2)[nH]1)C(C)C` [Compound 1096] and `COC(=O)N[C@H](C(=O)N1CCC[C@H]1c1nc2ccc(C#Cc3ccc(-c4cnc([C@@H]5CCCN5C(=O)[C@H](NC(=O)OC)C(C)C)[nH]4)cc3)cc2[nH]1)C(C)C` [Compound 1053] cannot be ordered by EC50: less than 1 nM for the first, less than 1 nM for the second.

`O=C([C@H](O)c1ccccc1)N1CCC[C@H]1c1ncc(-c2ccc(C#Cc3ccc(-c4cnc([C@@H]5CCCN5C(=O)[C@H](O)c5ccccc5)[nH]4)cc3)cc2)[nH]1` [Compound 157] and `COC(=O)N[C@@H](C(=O)N1CCC[C@H]1c1ncc(-c2ccc(C#Cc3ccc(-c4cnc([C@@H]5CCCN5C(=O)[C@@H](c5ccccc5)N5CCCC5)[nH]4)cc3)cc2)[nH]1)c1ccccc1` [Compound 178] cannot be ordered by EC50: less than 1 nM for the first, less than 1 nM for the second.

First: CC(C)(C)OC(=O)N[C@@H](C(=O)N1CCC[C@H]1C(=O)NCc1ccc(C#Cc2cnc([C@@H]3CCCN3C(=O)[C@H](NC(=O)OC(C)(C)C)c3ccccc3)[nH]2)cc1)c1ccccc1 [Compound 119]
Second: C[C@H](NC(=O)[C@@H]1CCCN1C(=O)[C@H](NC(=O)OC(C)(C)C)c1ccccc1)c1ccc(C#Cc2ccc(-c3cnc([C@@H]4CCCN4C(=O)[C@H](NC(=O)OC(C)(C)C)c4ccccc4)[nH]3)cc2)cc1 [Compound 169]
The EC50 of the first is lower: less than 1 nM for the first, 1 to 9.9 nM for the second.

Compared with `COC(=O)N[C@H](C(=O)N1CCC[C@H]1c1ncc(-c2ccc(C#Cc3ccc4nc([C@@H]5CCCN5C(=O)[C@@H](NC(=O)OC)C(C)(C)C)[nH]c4c3)cc2)[nH]1)C(C)(C)C` [Compound 1041], `CC(C)(C)OC(=O)N1CCCC1c1ncc(-c2ccc(C#Cc3ccc4nc([C@@H]5CCCN5C(=O)OC(C)(C)C)[nH]c4c3)cc2)[nH]1` (some centres unmarked) [Compound 1034] is higher in EC50: less than 1 nM for the first, 1 to 9.9 nM for the second.

Compared with `CC(C)[C@H](NC(=O)N1CC[C@@H](O)C1)C(=O)N1CCC[C@H]1c1ncc(-c2ccc(C#Cc3ccc(-c4cnc([C@@H]5CCCN5C(=O)[C@@H](NC(=O)N5CC[C@@H](O)C5)C(C)C)[nH]4)cc3)cc2)[nH]1` [Compound 968], `COC(=O)N[C@@H](C)C(=O)N1CCC[C@H]1c1ncc(-c2ccc(C#Cc3ccc(-c4cnc([C@@H]5CCCN5C(=O)[C@H](NC(=O)OC)c5ccccc5)[nH]4)cc3)cc2)[nH]1` [Compound 1004] is lower in EC50: 10 to 999 nM for the first, less than 1 nM for the second.

`COC(=O)N[C@H](C(=O)N1CCC[C@H]1c1nc2ccc3cc(C#Cc4ccc(-c5cnc([C@@H]6CCCN6C(=O)[C@@H](NC(=O)OC)C6CCOCC6)[nH]5)cc4F)ccc3c2[nH]1)C(C)C` [Compound 1099] and `COC(=O)N[C@H](C(=O)N1CCC[C@H]1c1nc(-c2ccc3cc(C#Cc4cnc([C@@H]5CCCN5C(=O)[C@@H](NC(=O)OC)C(C)C)[nH]4)ccc3c2)c[nH]1)c1ccccc1` [Compound 1078] cannot be ordered by EC50: less than 1 nM for the first, less than 1 nM for the second.

`O=C(N[C@@H](C(=O)N1CCC[C@H]1c1ncc(-c2ccc(C#Cc3ccc(-c4cnc([C@@H]5CCCN5C(=O)[C@@H](c5ccccc5)N5CCOCC5)[nH]4)cc3)cc2)[nH]1)c1ccccc1)C1CC1` [Compound 237] and `COC(=O)N[C@@H](C(=O)N1CCC[C@H]1c1ncc(C#Cc2ccc(C#Cc3cnc([C@@H]4CCCN4C(=O)[C@@H](c4ccccc4)N4CCOCC4)[nH]3)cc2)[nH]1)c1ccccc1` [Compound 313] cannot be ordered by EC50: less than 1 nM for the first, less than 1 nM for the second.

`COC(=O)N[C@H](C(=O)N1CCC[C@H]1c1ncc(C#Cc2cccc3c(C#Cc4cnc([C@@H]5CCCN5C(=O)[C@@H](NC(=O)OC)C(C)C)[nH]4)cccc23)[nH]1)C(C)C` [Compound 1113] and `COC(=O)N[C@@H](C(=O)N1CCC[C@H]1c1ncc(C#Cc2ccc(C#Cc3cnc([C@@H]4CCCN4C(=O)[C@@H](c4ccccc4)N4CCCC4)[nH]3)cc2)[nH]1)c1ccccc1` [Compound 311] cannot be ordered by EC50: less than 1 nM for the first, less than 1 nM for the second.

`O=C(N[C@@H](C(=O)N1CCC[C@H]1c1nc(-c2ccc3cc(C#Cc4cnc([C@@H]5CCCN5C(=O)[C@H](NC(=O)N5CC[C@@H](O)C5)c5ccccc5)[nH]4)ccc3c2)c[nH]1)c1ccccc1)N1CC[C@@H](O)C1` [Compound 807] and `O=C(N[C@@H](C(=O)N1CCC[C@H]1c1nc(-c2ccc3cc(C#Cc4cnc([C@@H]5CCCN5C(=O)[C@H](NC(=O)N5CC[C@H](O)C5)c5ccccc5)[nH]4)ccc3c2)c[nH]1)c1ccccc1)N1CC[C@H](O)C1` [Compound 806] fall in the same range of EC50: 1 to 9.9 nM for the first, 1 to 9.9 nM for the second.

Compared with `COC(=O)N[C@@H](C(=O)N1CCC[C@H]1c1ncc(-c2ccc(C#Cc3ccc(C(=O)NC[C@@H]4CCCN4C(=O)[C@H](NC(=O)N4CCOCC4)c4ccccc4)cc3)cc2)[nH]1)c1ccccc1` [Compound 235], `COC(=O)N[C@@H]1CCC[C@H]1C(=O)N1CCC[C@H]1c1ncc(-c2ccc(C#Cc3ccc4nc([C@@H]5CCCN5C(=O)[C@@H]5CCC[C@H]5NC(=O)OC)[nH]c4c3)cc2)[nH]1` [Compound 1058] is higher in EC50: less than 1 nM for the first, 10 to 999 nM for the second.

`CC(C)(NC(=O)C1CC1)C(=O)N1CCC[C@H]1c1ncc(C#Cc2ccc(-c3cnc([C@@H]4CCCN4C(=O)C(C)(C)NC(=O)C4CC4)[nH]3)cc2)[nH]1` [Compound 108] showed an EC50 greater than 1000 nM.

Same assay, conditions: Hepatitis C virus, Huh-7, read-out: Inhibition of HCV genotype 1b

`COC[C@H](NC(=O)OC)C(=O)N1CCC[C@H]1c1ncc(-c2ccc(C#Cc3ccc4nc([C@@H]5CCCN5C(=O)[C@@H](NC(=O)OC)C(C)C)[nH]c4c3)cc2)[nH]1` [Compound 1236] and `CC[C@H](C)[C@H](NC(=O)OC)C(=O)N1CCC[C@H]1c1ncc(-c2ccc(C#Cc3ccc4nc([C@@H]5CCCN5C(=O)[C@@H](NC(=O)OC)[C@@H](C)OC)[nH]c4c3)cc2)[nH]1` [Compound 1248] cannot be ordered by EC50: less than 1 nM for the first, less than 1 nM for the second.

`CC[C@@H](C)[C@H](NC(=O)OC)C(=O)N1CCC[C@H]1c1ncc(-c2ccc(C#Cc3ccc(-c4cnc([C@@H]5CCCN5C(=O)[C@@H](NC(=O)OC)[C@H](C)CC)[nH]4)cc3)cc2)[nH]1` [Compound 1217] and `CC[C@H](C)[C@H](NC(=O)OC)C(=O)N1CCC[C@H]1c1ncc(-c2ccc(C#Cc3ccc4nc([C@@H]5CCCN5C(=O)[C@@H](NC(=O)OC)[C@@H](C)CC)[nH]c4n3)cc2)[nH]1` [Compound 1251] cannot be ordered by EC50: less than 1 nM for the first, less than 1 nM for the second.

`COC(=O)N[C@H](C(=O)N1CCC[C@H]1c1ncc(-c2ccc3cc(C#Cc4[nH]c([C@@H]5CCCN5C(=O)[C@@H](NC(=O)OC)C5CCCC5)nc4C(F)(F)F)ccc3c2)[nH]1)C1CCCC1` [Compound 1254] and `COC(=O)N[C@H](C(=O)N1CCC[C@H]1c1ncc(-c2ccc(C#Cc3ccc4c(ccc5nc([C@@H]6CCCN6C(=O)[C@@H](NC(=O)OC)[C@@H](C)OC)[nH]c54)c3)cc2)[nH]1)C(C)C` [Compound 1271] cannot be ordered by EC50: less than 1 nM for the first, less than 1 nM for the second.

`COC(=O)N[C@H](C(=O)N1CCC[C@H]1c1nc2ccc3cc(C#Cc4ccc5nc([C@@H]6CCCN6C(=O)[C@H](NC(=O)OC6CCOCC6)c6ccccc6)[nH]c5c4)ccc3c2[nH]1)C(C)C` [Compound 1276] and `COC(=O)N[C@H](C(=O)N1CCN(C(=O)OC)C[C@H]1c1ncc(-c2ccc(C#Cc3ccc4nc([C@@H]5CCCN5C(=O)[C@@H](NC(=O)OC)C(C)C)[nH]c4c3)cc2)[nH]1)C(C)C` [Compound 1228] cannot be ordered by EC50: less than 1 nM for the first, less than 1 nM for the second.

Reference: US20130296311A1, “INHIBITORS OF HCV NS5A” (PRESIDIO PHARMACEUTICALS, INC., priority 2010, published 2013)
